Assays:
recombinant PPTB = recombinant PPTB (Aspergillus fumigatus, UniProt Q4W9R0); details: in the presence of magnesium ions and CoA-Bodipy TMR
Excerpt: In the present work PPTB assays used a fluorescently-labelled coenzyme A molecule (CoA-Bodipy TMR), such that PPTB activity transferred the label onto the ACP. The PPTB reaction could therefore be followed by separating the products of the PPTB reaction on an SDS-PAGE gel and illuminating with UV light to see whether the ACP band had become fluorescent. For the high-throughput screen, the PPTB assays used a fluorescence polarisation approach. This measures changes in the orientation of plane-polarized light brought about by fluorophores that undergo significant molecular motion during their fluorescence lifetime. […] The reduction in rotation causes a reduction in the ability of the Bodipy TMR molecule to depolarise plane-polarised light, which can be measured.
Further experiments were carried out using fluorescence polarization to optimise the PPTB assay for high-throughput screening.

A. fumigatus PPTB = target: T1, A. fumigatus PPTB (Aspergillus fumigatus, UniProt Q4W9R0); assay: fluorescence polarisation PPTB assay / high-throughput screen (CoA-Bodipy TMR transfer to ACP); assay type: biochemical; details: IC50 for CoA, assay carried out using unlabelled coenzyme A
T1 construct: NusA; His tag (vector-encoded, inferred from Ni-NTA purification); made in house; host or cells: E. coli BL21 (DE3)
T1 sequence (Q4W9R0 1-153): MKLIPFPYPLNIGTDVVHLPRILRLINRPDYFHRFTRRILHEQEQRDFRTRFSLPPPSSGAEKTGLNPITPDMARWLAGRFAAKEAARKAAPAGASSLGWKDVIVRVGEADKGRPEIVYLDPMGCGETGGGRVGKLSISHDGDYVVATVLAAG
Method: High-throughput fluorescent polarization screens for PPTB inhibitors were carried out in black, flat-bottom 384 well plates using the following equipment: Thermo Labsystems Multidrop 384 machine (Multidrop® 384) with dispensing cassette and plate adapter; Tecan Genesis Freedom and Tecan Te—Mo automated liquid handling robot with 235 μl tip head, plus appropriate PC/base unit/software; PerkinElmer Minitrak automated liquid handling robot with 235 μl tip head plus appropriate PC/base unit/software; and PerkinElmer Fusion-Alpha-FP HT plate reading spectrophotometer plus appropriate FP filters (Excitation filter 540 nm; Emission filter 580 nm, both filters with 20 nm bandwidth).
Buffer A: 62.5 mM Bis-Tris buffer (pH 6.75), 12.5 mM MgCl2. The final concentrations in the assay were 50 mM Bis-Tris and 10 mM MgCl2.
CoA-Bodipy TMR-ACP mix: 11.6 ml ACP (3.421 mg/ml) plus 1854.7 μl CoA-Bodipy TMR stock (see Section 3.2 above) was made up to 529.9 ml with Buffer A at 4° C.
PPTB enzyme: PPTB enzyme was typically used at 50 to 100 ng total protein/well; enzyme was used at a concentration that gave reaction linearity with respect to both time and protein concentration. This had to be determined for each enzyme batch. […]
Assays were carried out in black, flat-bottomed 384-well plates. […] The reaction was terminated by the addition of 25 μl Stop Reagent, after which plates were read in a spectrophotometer. […]

SMILES	effect on the labelling reaction of ACP (recombinant PPTB)	IC50 (A. fumigatus PPTB; plates read after 105 hours) [µM]	IC50 (A. fumigatus PPTB; plates read on day one) [µM]
O=C(O)CN(CCN(CC(=O)O)CC(=O)O)CC(=O)O [EDTA]	inhibited		
CC(C)(COP(=O)(O)OP(=O)(O)OC[C@H]1O[C@@H](n2cnc3c(N)ncnc32)[C@H](O)[C@@H]1OP(=O)(O)O)[C@@H](O)C(=O)NCCC(=O)NCCS [CoA, coenzyme A]		5.9	6.02
